The values that follow come from US20220047548A1, “SYNERGISTIC COMPOSITIONS COMPRISING (R)-2-(2-OXOPYRROLIDIN-1-YL)BUTANAMIDE AND (S)-2-(2-e OXOPYRROLEDIN-1-YL)BUTANAMEDE IN A NON-RACEMIC RATIO” (Metys Pharmaceuticals AG, priority 2018, published 2022).

In test [1] the test system is PTZ-induced kindling in mice. The test can be described thus: PTZ-induced kindling test in mice (tonic and clonic convulsions kindled by once-daily pentylenetetrazole). The format is in vivo, mice (adult male CD1). Conditions: for antiepileptic effect in comparison experiment (in words): Tab. 2 comparison. How it is done: Adult male CD1 mice (Envigo, Italy 20-25 g weight at arrival), were used. The cages were brought into the experimental room the day before the experiment, for acclimatization purposes. Each treatment group consisted of 15 mice. Mice were fed a standard laboratory diet. Food and water were freely available. Room temperature and relative humidity were constantly kept at 22±2° C. and 55±15%, respectively, and a 12-hour light and 12-hour darkness cycles maintained.
Levetiracetam (batch P102-14050 supplied by Astatech), etiracetam (supplied by Shaanxi Swiden Biotech Co., Ltd. Catalog number E932970), or mixtures of 1 part levetiracetam and 1 part etiracetam (1-to-3 R-to-S-etiracetam), or of 1 part levetiracetam and 0.5 part etiracetam (1-to-5 R-to-S-etiracetam), were dissolved in 1% carboxymethylcellulose (CMC) solution at a formulation strength of 55 mg/mL and orally administered once per day. Compounds were administered every day, from day 1 to day 11, 60 min before PTZ (55 mg/kg i.p.). PTZ was dissolved in saline; following i.p. injection, seizures developed in vehicle-treated mice within about 20 minutes.
The test was performed according to Gower et al. (Eur. J. Pharmacol. 222, 1992, 193-203). Separate groups of male mice were administered orally once daily for 11 consecutive days with levetiracetam (10, 30, or 60 mg/kg p.o.); etiracetam (30 mg/kg p.o.); or 1-to-3 R-to-S-etiracetam (30 mg/kg p.o.); or 1-to-5 R-to-S-etiracetam, (30 mg/kg p.o.); or oral vehicle, 60 min prior to administration of PTZ (pentylenetetrazole, 55.0 mg/kg i.p.). Immediately after the PTZ injection, the mice were placed in individual cages and observed for tonic and clonic seizures.
A chi-square test was used to verify significance between two means of behavioral results. Data were analyzed by the Social Science Statistics Program. P values ≤0.05 were considered significant (link https://www.socscistatistics.com/tests/chisquare/default2.aspx).

Test [2] has as its system electroshock-induced amnesia. Conditions: sub-cutaneous injection; rat; cited from earlier work.
[3] abbreviates: Table 2 comparison, 30 mg/kg p.o. once daily 60 min before PTZ 55 mg/kg i.p., Day 1.
Where [4] appears, read: Table 2 comparison, 30 mg/kg p.o. once daily 60 min before PTZ 55 mg/kg i.p., Day 2.
The mark [5] stands for this setting: Table 2 comparison, 30 mg/kg p.o. once daily 60 min before PTZ 55 mg/kg i.p., Day 3.
Where [6] appears, read: Table 2 comparison, 30 mg/kg p.o. once daily 60 min before PTZ 55 mg/kg i.p., Day 4.
[7] abbreviates: Table 2 comparison, 30 mg/kg p.o. once daily 60 min before PTZ 55 mg/kg i.p., Day 5.
Setting [8] is: Table 2 comparison, 30 mg/kg p.o. once daily 60 min before PTZ 55 mg/kg i.p., Day 6.
The mark [9] stands for this setting: Table 2 comparison, 30 mg/kg p.o. once daily 60 min before PTZ 55 mg/kg i.p., Day 7.
Where [10] appears, read: Table 2 comparison, 30 mg/kg p.o. once daily 60 min before PTZ 55 mg/kg i.p., Day 8.
Setting [11] is: Table 2 comparison, 30 mg/kg p.o. once daily 60 min before PTZ 55 mg/kg i.p., Day 9.
The mark [12] stands for this setting: Table 2 comparison, 30 mg/kg p.o. once daily 60 min before PTZ 55 mg/kg i.p., Day 10.
[13] abbreviates: Table 2 comparison, 30 mg/kg p.o. once daily 60 min before PTZ 55 mg/kg i.p., Day 11.

Marks after values point to notes of the source that are not given here.

Consider `CCC(C(N)=O)N1CCCC1=O` (racemic) [etiracetam, 2-(2-oxopyrrolidin-1-yl)butanamide], for which the “antiepileptic effect in comparison experiment (in words)” value in test [1] (30 mg/kg p.o.) is reported as “ineffective”. Further, the “percentage of mice per group with clonic convulsions” value (“percentage of mice per group” for short) in test [1] (setting [3]) stood at 0%; in test [1] (setting [4]) it was 6.6%; in test [1] (setting [5]), 13.3%; in test [1] (setting [6]), 26.6%; in test [1] (setting [7]) it was 26.6%; in test [1] (setting [8]) it was 46.6%. Moreover, the “percentage of mice per group” value is listed as 53.3% in test [1] (setting [9]); 66.6% in test [1] (setting [10]); 86.6% in test [1] (setting [11]); 93.3% in test [1] (setting [12]); 100% in test [1] (setting [13]).

For `CC[C@@H](C(N)=O)N1CCCC1=O` [levetiracetam, (S)-2-(2-oxopyrrolidin-1-yl)butanamide], the “effect on PTZ-induced kindling (in words)” value in test [1] (10 mg/kg p.o., at the end of the treatment (day 11)) is listed as “all mice showed tonic or clonic convulsions”; in test [1] (30 mg/kg p.o., dose-response experiment (Tab. 1)), “intermediate reduction of the effect”. In test [1] (30 mg/kg p.o.), the “antiepileptic effect in comparison experiment (in words)” value is given as “moderately effective”. Further, the “incidence of clonic convulsion in the first 6 days” value in test [1] (60 mg/kg p.o. once daily, days 1-6) is on record as ≤ 20%. In addition, the “effect on PTZ-induced kindling vs vehicle treatment group (in words)” value in test [1] (60 mg/kg p.o., eighth to eleventh day of treatment) was “statistically significant difference in the proportion of mice exhibiting seizures”. Further, the “percentage of mice per group” value was found to be 6.6% in test [1] (Table 1, 10 mg/kg p.o. once daily 60 min before PTZ 55 mg/kg i.p., Day 1); 6.6% in test [1] (Table 1, 10 mg/kg p.o. once daily 60 min before PTZ 55 mg/kg i.p., Day 2); 20.0% in test [1] (Table 1, 10 mg/kg p.o. once daily 60 min before PTZ 55 mg/kg i.p., Day 3); 26.6% in test [1] (Table 1, 10 mg/kg p.o. once daily 60 min before PTZ 55 mg/kg i.p., Day 4); 26.6% in test [1] (Table 1, 10 mg/kg p.o. once daily 60 min before PTZ 55 mg/kg i.p., Day 5); 53.0% in test [1] (Table 1, 10 mg/kg p.o. once daily 60 min before PTZ 55 mg/kg i.p., Day 6). For the same compound, the “percentage of mice per group” value in test [1] (Table 1, 10 mg/kg p.o. once daily 60 min before PTZ 55 mg/kg i.p., Day 7) came out at 53.3%; in test [1] (Table 1, 10 mg/kg p.o. once daily 60 min before PTZ 55 mg/kg i.p., Day 8), 73.3%; in test [1] (Table 1, 10 mg/kg p.o. once daily 60 min before PTZ 55 mg/kg i.p., Day 9), 86.6%; in test [1] (Table 1, 10 mg/kg p.o. once daily 60 min before PTZ 55 mg/kg i.p., Day 10), 86.6%; in test [1] (Table 1, 10 mg/kg p.o. once daily 60 min before PTZ 55 mg/kg i.p., Day 11) it was 100%; in test [1] (Table 1, 30 mg/kg p.o. once daily 60 min before PTZ 55 mg/kg i.p., Day 1) it was 0%. For the same compound, the “percentage of mice per group” value in test [1] (Table 1, 30 mg/kg p.o. once daily 60 min before PTZ 55 mg/kg i.p., Day 2) turned out to be 6.6%; in test [1] (Table 1, 30 mg/kg p.o. once daily 60 min before PTZ 55 mg/kg i.p., Day 3), 13.3%; in test [1] (Table 1, 30 mg/kg p.o. once daily 60 min before PTZ 55 mg/kg i.p., Day 4), 20.0%; in test [1] (Table 1, 30 mg/kg p.o. once daily 60 min before PTZ 55 mg/kg i.p., Day 5), 20.0%; in test [1] (Table 1, 30 mg/kg p.o. once daily 60 min before PTZ 55 mg/kg i.p., Day 6), 26.6%; in test [1] (Table 1, 30 mg/kg p.o. once daily 60 min before PTZ 55 mg/kg i.p., Day 7), 33.3%. For the same compound, the “percentage of mice per group” value in test [1] (Table 1, 30 mg/kg p.o. once daily 60 min before PTZ 55 mg/kg i.p., Day 8) was determined as 46.6%; in test [1] (Table 1, 30 mg/kg p.o. once daily 60 min before PTZ 55 mg/kg i.p., Day 9) it was 66.6%; in test [1] (Table 1, 30 mg/kg p.o. once daily 60 min before PTZ 55 mg/kg i.p., Day 10), 66.6%; in test [1] (Table 1, 30 mg/kg p.o. once daily 60 min before PTZ 55 mg/kg i.p., Day 11), 73.3%; in test [1] (Table 1, 60 mg/kg p.o. once daily 60 min before PTZ 55 mg/kg i.p., Day 1), 0%; in test [1] (Table 1, 60 mg/kg p.o. once daily 60 min before PTZ 55 mg/kg i.p., Day 2), 0%. Besides, the “percentage of mice per group” value in test [1] (Table 1, 60 mg/kg p.o. once daily 60 min before PTZ 55 mg/kg i.p., Day 3) was 6.6%; in test [1] (Table 1, 60 mg/kg p.o. once daily 60 min before PTZ 55 mg/kg i.p., Day 4), 20.0%; in test [1] (Table 1, 60 mg/kg p.o. once daily 60 min before PTZ 55 mg/kg i.p., Day 5) it was 20.0%; in test [1] (Table 1, 60 mg/kg p.o. once daily 60 min before PTZ 55 mg/kg i.p., Day 6), 20.0%; in test [1] (Table 1, 60 mg/kg p.o. once daily 60 min before PTZ 55 mg/kg i.p., Day 7), 26.6%; in test [1] (Table 1, 60 mg/kg p.o. once daily 60 min before PTZ 55 mg/kg i.p., Day 8), 26.6^# %. Besides, the “percentage of mice per group” value in test [1] (Table 1, 60 mg/kg p.o. once daily 60 min before PTZ 55 mg/kg i.p., Day 9) is 33.3^# %; in test [1] (Table 1, 60 mg/kg p.o. once daily 60 min before PTZ 55 mg/kg i.p., Day 10), 33.3^# %; in test [1] (Table 1, 60 mg/kg p.o. once daily 60 min before PTZ 55 mg/kg i.p., Day 11) it was 40%; in test [1] (setting [3]), 0%; in test [1] (setting [4]) it was 0%; in test [1] (setting [5]) it was 6.6%. For the same compound, the “percentage of mice per group” value worked out at 13.3% in test [1] (setting [6]); 20.0% in test [1] (setting [7]); 26.6% in test [1] (setting [8]); 33.3% in test [1] (setting [9]); 46.6% in test [1] (setting [10]); 66.6% in test [1] (setting [11]). Further, the “percentage of mice per group” value in test [1] (setting [12]) and in test [1] (setting [13]) was 73.3% throughout.

For the compound `CC[C@H](C(N)=O)N1CCCC1=O` [R-etiracetam, (R)-2-(2-oxopyrrolidin-1-yl)butanamide], the “potency relative to racemic etiracetam” value in test [2] is 10 fold.
